The experiment has as its target T1, human type II PLA2 (Homo sapiens, UniProt P14555).
T1 construct: made in house; host or cells: baculovirus system
T1 sequence (P14555 21-144): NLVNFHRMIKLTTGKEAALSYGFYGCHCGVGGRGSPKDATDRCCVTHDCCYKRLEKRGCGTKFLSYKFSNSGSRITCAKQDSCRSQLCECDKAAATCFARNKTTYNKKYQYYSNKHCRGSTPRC
Kind of experiment: E. coli PLA2 assay (3H-oleic acid labeled E. coli as substrate). It is filed as biochemical. The following applies: compounds 33 and 34 assayed as a mixture at 100 μM, 50 μM, and 10 μM (final concentration). The source says:
After each round of synthesis as described in the above examples, the resulting pools of compounds are screened for inhibition of human type II PLA2 enzymatic activity. The assay is effected at the conclusion of each round of synthesis to identify the wining pool from that round of synthesis. Concurrently, the libraries additionally can be screened in other in vitro assays to determine further mechanisms of inhibition.
The pools of the macrocyclic libraries are screened for inhibition of PLA2 in the assay using E. coli labeled with ^3H-oleic acid (Franson et al., J. Lipid Res. 1974, 15, 380; and Davidson et al., J. Biol. Chem. 1987, 262, 1698) as the substrate. Type II PLA2 (originally isolated from synovial fluid), expressed in a baculovirus system and partially purified, serves as a source of the enzyme. […] 165 μl of each supernate is then put into a scintillation vial containing 6 ml of scintillant (Scintiverse) and cpms are measured in a Beckman Liquid Scintillation Counter. […]
The compounds were assayed as a mixture at 100 μM, 50 μM, and 10 μM (final concentration). […] Duplicate assay values were averaged, background (no compound, no PLA2) was subtracted and the percentage of the positive control (no compound) was calculated.

As for “1,11,18,28-tetracarboxy-2,10,19,27-tetraaza-7,22-bis-(tosyl)aza-3,26-dioxa-[11.11]pyridinophane [compound 33]”, the “inhibitory activity in E. coli PLA2 assay” value is listed as “showed inhibitory activity”.

As to “1,11,18,28-tetracarboxy-2,10,19,27-tetraaza-7,24-bis-(tosyl)aza-3,20-dioxa-[11.11]pyridinophane [compound 34]”, the “inhibitory activity in E. coli PLA2 assay” value was “showed inhibitory activity”.
